Patent US8445444B2, “Compositions and methods for diagnosing, treating, and preventing prostate conditions” (Phigenix, Inc., priority 2007, dated 2013)

Legend:
Format in all cases: cell-based, human
[1] = system: PC3; assay: Annexin V-FITC/propidium iodide flow cytometry
Description: Flow Cytometry: PC3 and DU145 cells co-transfected with the DEFB1 expression system were grown in 60-mm dishes and induced for 12, 24, and 48 hours with 10 μM Ponasterone A. Following each incubation period, the medium was collected from the plates (to retain any detached cells) and combined with PBS used to wash the plates. The remaining attached cells were harvested by trypsinization and combined with the detached cells and PBS. The cells were then pelleted at 4° C. (500×g) for 5 min, washed twice in PBS, and resuspended in 100 ul of 1× Annexin binding buffer (0.1 M Hepes/NaOH at pH 7.4, 1.4 M NaCl, 25 mM CaCl2) containing 5 μl of Annexin V-FITC and 5 μl of PI. The cells were incubated at RT for 15 min in the dark, then diluted with 400 μl of 1× Annexin binding buffer and analyzed by FACscan (Becton Dickinson, San Jose, Calif.). All reactions were performed three times.
Flow cytometry: PC3 and DU145 cells transfected with the hBD-1 expression system were grown in 60-mm dishes and induced for 12, 24, and 48 h with 10 μM Pon A. Following each incubation period, the medium was collected from the plates (to retain any detached cells) and combined with PBS used to wash the plates. The remaining attached cells were harvested by trypsinization and combined with the detached cells and PBS. The cells were then pelleted at 4° C. (500×g) for 5 min, washed twice in PBS, and resuspended in 100 μl, of 1× Annexin binding buffer (0.1 M Hepes/NaOH at pH 7.4, 1.4 M NaCl, 25 mM CaCl2) containing […] Annexin V-FITC and 5 μl of PI. The cells were incubated at RT for 15 min in the dark, then diluted with 400 μl of 1× Annexin binding buffer and analyzed by FACscan (Becton Dickinson, San Jose, Calif.). All reactions were performed three times.

[2] = system: DU145; assay: Acridine orange/ethidium bromide membrane integrity
Description: (§1) Analysis of Membrane Permeability: Acridine orange (AO)/ethidium bromide (EtBr) dual staining was performed to identify changes in cell membrane integrity, as well as apoptotic cells by staining the condensed chromatin. AO stains viable cells as well as early apoptotic cells, whereas EtBr stains late stage apoptotic cells that have lost […]. Briefly, cells were seeded into 2 chamber culture slides (BD Falcon, USA). Cells transfected with empty pIND plasmid/pvgRXR or pIND DEFB1/pvgRXR were induced for 24 or 48 h with media containing 10 μM Ponasterone A. Control cells were provided fresh media at 24 and 48 h. In order to determine the effect of PAX2 inhibition on membrane integrity, separate culture slides containing DU145, PC3 and LNCaP were treated with PAX2 siRNA and incubated for 4 days. Following this, cells were washed once with PBS and stained with 2 ml of a mixture (1:1) of AO (Sigma, USA) and EtBr (Promega, USA) (5 ug/ml) solution for 5 min. Following staining, the cells were again washed with PBS. Fluorescence was viewed by a Zeiss LSM 5 Pascal Vario 2 Laser Scanning Confocal Microscope (Carl Zeiss Jena, Germany). The excitation color wheel contain BS505-530 (green) and LP560 (red) filter blocks which allowed for the separation of emitted green light from AO into the green channel and red light from EtBr into the red channel. The laser power output and gain control settings within each individual experiment were identical between control and DEFB1 induced cells. The excitation was provided by a Kr/Ar mixed gas laser at wavelengths of 543 nm for AO and 488 nm for EtBr. Slides were analyzed under 40× magnification and digital images were stored as uncompressed TIFF files and exported into Photoshop CS software (Adobe Systems, San Jose, Calif.) for image processing and hard copy presentation.
(§2) Analysis of membrane integrity: Acridine orange (AO)/ethidium bromide (EtBr) dual staining was performed to identify changes in cell membrane integrity, as well as apoptotic cells by staining the condensed chromatin. AO stains viable cells and early apoptotic cells, whereas EtBr stains late stage apoptotic cells that have compromised membranes. Briefly, PC3, DU145 and LNCaP cells were seeded into 2-chamber culture slides (BD Falcon). Cells transfected with empty plasmid or hBD-1 plasmid were induced for 24 or 48 h with media containing 10 μM Pon A, while control cells received fresh growth media at each time point. After induction, cells were washed once with PBS and stained with 2 ml of a mixture (1:1) of AO (Sigma, St. Louis, Mo.) and EtBr (Promega) (5 μg/ml) solution for 5 min and were again washed with PBS.
(§3) Fluorescence was viewed by a Zeiss LSM 5 Pascal Vario 2 Laser Scanning Confocal Microscope (Carl Zeiss). The excitation color wheel contains BS505-530 (green) and LP560 (red) filter blocks which allowed for the separation of emitted green light from AO into the green channel and red light from EtBr into the red channel. The laser power output and gain control settings within each individual experiment were identical between control and hBD-1 induced cells. The excitation was provided by a Kr/Ar mixed gas laser at wavelengths of 543 nm for AO and 488 nm for EtBr. Slides were analyzed under 40× magnification and digital images were stored as uncompressed TIFF files and exported into Photoshop CS software (Adobe Systems) for image processing and hard copy presentation. […]

[3] = system: PC3; assay: as above
Description: as §1, §2, §3

[4] = system: LNCaP; assay: as above; details: 48 h hBD-1 induction
Description: as §1, §2, §3

DEFB1: human beta defensin-1 expressed from the ecdysone inducible pIND/DEFB1 construct, induced with Ponasterone A (DHYNCVSSGGQCLYSACPIFTKIQGTCYRGKAKCCK; UniProt P60022 33-68, looked up)
number of apoptotic cells (lower and upper right quadrants) ([1]; PC3, 12 h DEFB1 (hBD-1) induction): 10% | number of apoptotic cells (lower and upper right quadrants) ([1]; PC3, 24 h): 20% | number of apoptotic cells (lower and upper right quadrants) ([1]; PC3, 48 h): 44% | membrane integrity (AO/EtBr staining) ([2]; DU145, 24 h DEFB1 (hBD-1) induction): accumulation of EtBr in the cytoplasm | membrane integrity (AO/EtBr staining) ([2]; DU145, 48 h DEFB1 (hBD-1) induction): condensed nuclei and appeared yellow | membrane integrity (AO/EtBr staining) ([3]; PC3, 24 h DEFB1 (hBD-1) induction): accumulation of EtBr in the cytoplasm | membrane integrity (AO/EtBr staining) ([3]; PC3, 48 h DEFB1 (hBD-1) induction): condensed nuclei and appeared yellow | membrane integrity (AO/EtBr staining) [4]: no observable alterations to membrane integrity
